From patent publication US7432264B2, “Antimicrobial biaryl compounds” (Isis Pharmaceuticals, Inc., priority 2000, dated 2008)
Values after ≈ are worked out from the molar mass of the structure shown. Where two headings read alike, the source gives them in different places.

Assays:
S. aureus ATCC 13709 = assay: Minimum inhibitory concentration (MIC), S. aureus; type: cell-based, Staphylococcus aureus
Method: (§1) Bacterial Strains. The Streptococcus pyogenes strains, Klebsiella pneumoniae, Escherichia coli, Staphylococcus aureus, Enterococcus faecalis used in the antibacterial activity studies ATCC 14289, 49399, 13883, 25922, 13709, 29212, respectively, are obtained from the American Type Culture Collection, Rockville, Md. The strain E. coli imp— is a mutant strain of wild type E. coli with increased outer membrane permeability and was grown in LB broth at 37 °C. S. pyogenes strain is grown in Todd-Hewitt broth. S. aureus is grown in trypticase soy broth, E. faecalis in Todd-Hewitt broth, wild type E. coli and K. pneumoniae, in nutrient broth.
(§2) Determination of Minimum Inhibitory Concentrations (MICs). The assays were carried out in […] volume in duplicate in 96-well clear flat-bottom plates. The bacterial suspension from an overnight culture growth in appropriate medium was added to a solution of test compound in 4% DMSO in water. Final bacterial inoculum was approximately 10^5-10^6 CFU/well. The percent growth of the bacteria in test wells relative to that observed for a well containing no compound was determined by measuring absorbance at 595 nm (A595) after 24 h. […] Both ampicillin and tetracycline is used as antibiotic-positive controls in each screening assay for S. pyogenes, E. coli imp-, E. coli, S. aureus, E. faecalis, K pneumoniae and P. vulgaris. Ciprofloxacin is used as an antibiotic positive control in each screening assay for P. aeruginosa.

E. coli ATCC 25922 = assay: Minimum inhibitory concentration (MIC), E. coli; type: cell-based, Escherichia coli
Method: as §1, §2

[1] = Staphylococcus aureus, ATCC13709, 24 h, read-out: MIC (S. aureus)
[2] = Escherichia coli, ATCC25922, 24 h, read-out: MIC (E. coli)
[3] = Staphylococcus aureus, ATCC13709, read-out: MIC (S. aureus) +serum, with serum
[4] = Staphylococcus aureus, ATCC13709, read-out: MIC (S. aureus) alone, alone (no serum)
[5] = Escherichia coli, ATCC25922, read-out: MIC (E. coli) +serum
[6] = Escherichia coli, ATCC25922, read-out: MIC (E. coli) alone

Row | SMILES | MIC (S. aureus ATCC 13709; [1]) [mM] | MIC (E. coli ATCC 25922; [2]) [mM] | further results
1 | CN(C)CCCOc1ccc(C(NC(=O)c2ccc(-c3cccc(NC(=O)c4ccc(-c5cc(Cl)cc(Cl)c5)cc4)c3)o2)C(=O)N2CCNCC2)cc1 (stereo not shown) [Compound 49] | > 100 | > 100 | –
2 | Cc1cccc(C)c1-c1ccc(C(=O)Nc2cccc(-c3ccc(C(=O)NC(C(=O)N4CCNCC4)c4ccc(OCCCN(C)C)cc4)o3)c2)cc1 (stereo not shown) [Compound 44] | 13 to 25 (≈ 9280 to 17800 µg/mL) | 25 to 50 (≈ 17800 to 35700 µg/mL) | –
3 | CN(C)CCCOc1ccc(C(NC(=O)c2ccc(-c3cccc(NC(=O)c4ccc(-c5ccccc5)cc4)c3)s2)C(=O)N2CCNCC2)cc1 (stereo not shown) [Compound 69] | 25 to 50 (≈ 17500 to 35100 µg/mL) | 25 to 50 (≈ 17500 to 35100 µg/mL) | –
4 | Cc1ccccc1-c1ccc(C(=O)Nc2cccc(-c3ccc(C(=O)NC(C(=O)N4CCNCC4)c4ccc(OCCCN(C)C)cc4)o3)c2)cc1 (stereo not shown) [Compound 38] | 3 to 6 (≈ 2100 to 4200 µg/mL) | 3 to 6 (≈ 2100 to 4200 µg/mL) | –
5 | CN(C)CCCOc1ccc(C(NC(=O)c2ccc(-c3cccc(NC(=O)c4ccc(-c5cccc(Cl)c5)cc4)c3)o2)C(=O)N2CCNCC2)cc1 (stereo not shown) [Compound 48] | 13 to 25 (≈ 9360 to 18000 µg/mL) | 13 to 25 (≈ 9360 to 18000 µg/mL) | –
6 | CN(C)CCCOc1ccc(C(NC(=O)c2ccc(-c3cccc(NC(=O)c4ccc(-c5ccccc5Cl)cc4)c3)o2)C(=O)N2CCNCC2)cc1 (stereo not shown) [Compound 47] | 25 to 50 (≈ 18000 to 36000 µg/mL) | 6 to 13 (≈ 4320 to 9360 µg/mL) | –
7 | CN(C)CCCOc1ccc(C(NC(=O)c2ccc(-c3cccc(NC(=O)c4ccc(-c5c(F)cccc5F)cc4)c3)o2)C(=O)N2CCNCC2)cc1 (stereo not shown) [Compound 54] | 13 to 25 (≈ 9380 to 18000 µg/mL) | 3 to 6 (≈ 2170 to 4330 µg/mL) | –
8 | CN(C)CCCOc1ccc(C(C(=O)N2CCNCC2)N(C)Cc2ccc(-c3cccc(NC(=O)c4ccc(-c5ccccc5)cc4)c3)o2)cc1 (stereo not shown) [Compound 64] | 3 to 6 (≈ 2060 to 4120 µg/mL) | 6 to 13 (≈ 4120 to 8920 µg/mL) | –
9 | CCc1ccccc1-c1ccc(C(=O)Nc2cccc(-c3ccc(C(=O)NC(C(=O)N4CCNCC4)c4ccc(OCCCN(C)C)cc4)o3)c2)cc1 (stereo not shown) [Compound 41] | 3 to 6 (≈ 2140 to 4280 µg/mL) | 13 to 25 (≈ 9280 to 17800 µg/mL) | –
10 | CN(C)CCCOc1ccc(C(NC(=O)c2ccc(-c3cccc(NC(=O)c4ccc(-c5ccc(C(C)(C)C)cc5)cc4)c3)o2)C(=O)N2CCNCC2)cc1 (stereo not shown) [Compound 37] | > 100 | > 100 | –
11 | CN(C)CCCOc1ccc(C(NC(=O)c2ccc(-c3cccc(N(C)Cc4ccc(-c5ccccc5)cc4)c3)o2)C(=O)N2CCNCC2)cc1 (stereo not shown) [drawing 89] | – | – | MIC (S. aureus ATCC 13709; [3]): 50 to 100 mM (≈ 34300 to 68600 µg/mL); MIC (S. aureus ATCC 13709; [4]): 3 to 6 mM (≈ 2060 to 4120 µg/mL); MIC (E. coli ATCC 25922; [5]): > 100 mM; MIC (E. coli ATCC 25922; [6]): 6 to 13 mM (≈ 4120 to 8920 µg/mL)
12 | Cc1cc(C(=O)Nc2cccc(-c3ccc(C(=O)NC(C(=O)N4CCNCC4)c4ccc(OCCCN(C)C)cc4)o3)c2)ccc1-c1ccccc1 (stereo not shown) [Compound 62] | 12 to 25 (≈ 8400 to 17500 µg/mL) | 3 to 6 (≈ 2100 to 4200 µg/mL) | –
13 | CN(C)CCCOc1ccc(C(NC(=O)c2ccc(-c3cccc(NC(=O)c4ccc(-c5ccccc5)cc4)c3)o2)C(=O)N2CCN(C)CC2)cc1 (stereo not shown) [Compound 70] | 25 to 50 (≈ 17500 to 35000 µg/mL) | 25 to 50 (≈ 17500 to 35000 µg/mL) | –
14 | Cc1cccc(-c2ccc(C(=O)Nc3cccc(-c4ccc(C(=O)NC(C(=O)N5CCNCC5)c5ccc(OCCCN(C)C)cc5)o4)c3)cc2)c1C (stereo not shown) [Compound 42] | – | – | MIC (S. aureus ATCC 13709; Staphylococcus aureus, ATCC13709, 24 h; read-out: MIC (S. aureus)): 3 to 6 mM (≈ 2140 to 4280 µg/mL); MIC (E. coli ATCC 25922; Escherichia coli, ATCC25922, 24 h; read-out: MIC (E. coli)): 13 to 25 mM (≈ 9280 to 17800 µg/mL)
15 | CC(=O)c1ccccc1-c1ccc(C(=O)Nc2cccc(-c3ccc(C(=O)NC(C(=O)N4CCNCC4)c4ccc(OCCCN(C)C)cc4)o3)c2)cc1 (stereo not shown) | 6 to 13 (≈ 4370 to 9460 µg/mL) | > 100 | –
16 | Cc1cc(C)c(-c2ccc(C(=O)Nc3cccc(-c4ccc(C(=O)NC(C(=O)N5CCNCC5)c5ccc(OCCCN(C)C)cc5)o4)c3)cc2)c(C)c1 (stereo not shown) [Compound 45] | 13 to 25 (≈ 9460 to 18200 µg/mL) | 50 to 100 (≈ 36400 to 72800 µg/mL) | –
17 | CN(C)CCCOc1ccc(C(NC(=O)c2ccc(-c3cccc(NC(=O)c4ccc(-c5ccccc5)cc4)c3)o2)C(=O)N2CCNCC2)cc1 (stereo not shown) [drawing 88] | – | – | MIC (S. aureus ATCC 13709; [3]): 50 to 100 mM (≈ 34300 to 68600 µg/mL); MIC (S. aureus ATCC 13709; [4]): 3 to 6 mM (≈ 2060 to 4110 µg/mL); MIC (E. coli ATCC 25922; [5]): 50 to 100 mM (≈ 34300 to 68600 µg/mL); MIC (E. coli ATCC 25922; [6]): 6 to 13 mM (≈ 4110 to 8920 µg/mL)
18 | CN(C)CCCOc1ccc(C(NC(=O)c2ccc(-c3cccc(NC(=O)c4ccc(-c5ccccc5F)cc4)c3)o2)C(=O)N2CCNCC2)cc1 (stereo not shown) [Compound 53] | 6 to 13 (≈ 4220 to 9150 µg/mL) | 13 to 25 (≈ 9150 to 17600 µg/mL) | –
